Data: patent US9139502B2, “Use of an urushiol compound in preparation of pharmaceutical compositions for inhibiting Smad3 phosphorylation” (Southern Hospital, Southern Medical University, priority 2013, dated 2015)

What was measured:
[1] = target: interaction of Smad2 with TβRI (Rattus norvegicus, UniProt O70436); experiment: Immunoprecipitation of Smad2 with TβRI in UUO kidneys; type: in vivo; conditions: GQ-5 40 mg/kg daily i.p. right after UUO, sacrificed day 14
Method: (§1) Male Sprague-Dawley rats with body weight 200 to 250 g were randomized into 3 groups (n=6 in each group): (1) sham operated rats; (2) UUO rats; (3) UUO+GQ-5 rats.
(§2) GQ-5 was dissolved in 5% propylene glycol.
(§3) (3) UUO+GQ-5 rats: daily intraperitoneal injection of GQ-5 (40 mg/kg body weight) right after UUO;
(§4) UUO was performed using an established protocol as described. GQ-5 was dissolved in 5% propylene glycol. Rats were administrated with GQ-5 as described before. All the rats were sacrificed 14 days after UUO. Immunoprecipitation analyses were performed to examine the interaction among TβRI, TβRII, Smad3 and Smad2.

PI3K = experiment: Western blot of TGF-β1-induced PI3K phosphorylation in vitro; type: cell-based, rat; conditions: NRK52E and NRK49F cells, GQ-5 2.5 nM pre-treated 1 h, TGF-β1 10 ng/ml 1 h
Method: (§5) NRK52E and NRK49F cells were cultured in DMEM-Ham's medium (Gibco, Life Techologies, NY, USA) supplemented with 10% fetal bovine serum (Gibco, Life Techologies, NY, USA). The cells reached at approximately 50% confluence were used for in vitro experiments. Cells were serum-starved for 12 h, and randomized into 4 groups: (1) Controls; (2) GQ-5 only; (3) TGF-β1 only; (4) TGF-β1+GQ-5
(§6) (2) GQ-5 only: pre-treated with GQ-5 (2.5 μM) for 1 h, followed with DMEM for 1 h
(§7) (3) TGF-β1 only: pre-treated with DMSO (0.1%) for 1 h, followed with TGF-β1 (10 ng/ml) for 1 h
(§8) (4) TGF-β1+GQ-5: pre-treated with GQ-5 (2.5 nM) for 1 h, followed with TGF-β1 (10 ng/ml) for 1 h
(§9) GQ-5 was dissolved in DMSO. Cells were treated as described. cell lysates were immunoblotted with antibodies against Smad4, Smad7, phospho-p38, p38, phospho-PI3K, PI3K, phosphor-ERK, and ERK.

[2] = target: interaction of Smad3 with TβRI (Rattus norvegicus, UniProt P84025); experiment: Immunoprecipitation of Smad3 with TβRI in UUO kidneys; type: in vivo; design: from tissue; host or cells: kidney of UUO Sprague-Dawley rats; conditions: GQ-5 40 mg/kg daily i.p. right after UUO, sacrificed day 14
Method: as §1, §2, §3, §4

ERK [3] = experiment: Western blot of ERK phosphorylation in UUO kidneys; type: in vivo, rat; conditions: UUO rats, GQ-5 40 mg/kg daily i.p. right after UUO, sacrificed day 14
Method: as §1, §2, §3
as §4, with “Western blot” for “Immunoprecipitation”, “Smad4, Smad7 expression” for “interaction among TβRI, TβRII, Smad3”, “p38, PI3K, ERK phosphorylation.” for “Smad2.”

collagen I [4] = experiment: Real-time PCR of TGF-β1-induced collagen I mRNA in vitro; type: cell-based, rat; conditions: NRK 52E and NRK 49F cells, GQ-5 0.1-2.5 μM pre-treated 1 h, TGF-β1 10 ng/ml 36 h
Method: NRK52E and NRK49F cells were cultured in DMEM-Ham's medium supplemented with 10% fetal bovine serum. The cells reached at approximately 50% confluence were used for in vitro experiments. Cells were serum-starved for 12 h, and randomized into 6 groups: (1) Controls; (2) GQ-5 only; (3) TGF-β1 only; (4) TGF-β1+GQ-5 0.1 μM; (5) TGF-β1+GQ-5 0.5 μM; (6) TGF-β1+GQ-5 2.5 μM
(2) GQ-5 only: pre-treated with GQ-5 (2.5 μM) for 1 h, followed with DMEM for 36 h
(3) TGF-β1 only: pre-treated with DMSO for 1 h, followed with TGF-β1 (10 ng/ml) for 36 h
(4) TGF-β1+GQ-5 0.1 μM: pre-treated with GQ-5 (0.1 μM) for 1 h, followed with TGF-β1 (10 ng/ml) for 36 h
(5) TGF-β1+GQ-5 0.5 μM: pre-treated with GQ-5 (0.5 μM) for 1 h, followed with TGF-β1 (10 ng/ml) for 36 h
(6) TGF-β1+GQ-5 2.5 μM: pre-treated with GQ-5 (2.5 μM) for 1 h, followed with TGF-β1 (10 ng/ml) for 36 h
GQ-5 was dissolved in DMSO. Cells were treated as described. Cells were collected for mRNA extraction. Real-rime PCR was performed to examine the mRNA expression of α-SMA, collagen I and fibronectin.

C57BL/6J mice = experiment: Single-dose toxicity of GQ-5 in mice; type: in vivo; conditions: single intraperitoneal dose up to 800 mg/kg, 7-day observation
Method: To test the toxicity of GQ-5, 20 C57BL/6J little male mice which are […], healthy and clean, their weights are between 20 and 22 gram. Antisepsis the feed and water, before and in the layoff period of the test, all the mice should be feed under the normal feeding condition.
Dissolve GQ-5 in 0.5% propylene glycol, this liquor is given to little mice by intraperitoneal injection. The dosage of GQ-5 was 10, 40, 200, and 800 mg/kg body weight of mice. After administration, they are observed for 7 days.

ERK [5] = experiment: Western blot of TGF-β1-induced ERK phosphorylation in vitro; type: cell-based, rat; conditions: NRK52E and NRK49F cells, GQ-5 2.5 nM pre-treated 1 h, TGF-β1 10 ng/ml 1 h
Method: as §5, §6, §7, §8, §9

collagen I [6] = experiment: Collagen I expression in UUO kidney tissue (real-time PCR, immunohistochemistry, Western blot); type: in vivo, rat; conditions: UUO rats, GQ-5 40 mg/kg daily i.p., sacrificed day 14
Method: (§10) Male Sprague-Dawley rats were randomized into 4 groups (n=6 in each group): (1) sham operated rats; (2) UUO rats; (3) UUO+GQ-5 d1 rats; (4) UUO+GQ-5 d7 rats.
as §2
(§11) (3) UUO+GQ-5 d1 rats: daily intraperitoneal injection of GQ-5 (40 mg/kg body weight) right after UUO;
(§12) (4) UUO+GQ-5 d7 rats: daily intraperitoneal injection of GQ-5 (40 mg/kg body weight) 7 days after UUO.
(§13) UUO was performed using an established protocol as described. GQ-5 was dissolved in 5% propylene glycol. Rats were administrated with GQ-5 as described before. All the rats were sacrificed 14 days after UUO. HE staining, Masson trichrome staining were performed to examine the renal tissue injury, and Real-time PCR analyses, immunohistochemical staining, and Western blot analyses were performed to examine α-SMA, collagen I and fibronectin expression in kidney tissue

fibronectin = experiment: Fibronectin expression in UUO kidney tissue (real-time PCR, immunohistochemistry, Western blot); type: in vivo, rat; conditions: UUO rats, GQ-5 40 mg/kg daily i.p., sacrificed day 14
Method: as §10, §2, §11, §12, §13

Smad7 = experiment: Western blot of Smad7 expression in UUO kidneys; type: in vivo, rat; conditions: UUO rats, GQ-5 40 mg/kg daily i.p. right after UUO, sacrificed day 14
Method: as §1, §2, §3
as §4, with “Western blot” for “Immunoprecipitation”, “Smad4, Smad7 expression” for “interaction among TβRI, TβRII, Smad3”, “p38, PI3K, ERK phosphorylation.” for “Smad2.”

Sequence of interaction of Smad3 with TβRI (P84025 whole entry): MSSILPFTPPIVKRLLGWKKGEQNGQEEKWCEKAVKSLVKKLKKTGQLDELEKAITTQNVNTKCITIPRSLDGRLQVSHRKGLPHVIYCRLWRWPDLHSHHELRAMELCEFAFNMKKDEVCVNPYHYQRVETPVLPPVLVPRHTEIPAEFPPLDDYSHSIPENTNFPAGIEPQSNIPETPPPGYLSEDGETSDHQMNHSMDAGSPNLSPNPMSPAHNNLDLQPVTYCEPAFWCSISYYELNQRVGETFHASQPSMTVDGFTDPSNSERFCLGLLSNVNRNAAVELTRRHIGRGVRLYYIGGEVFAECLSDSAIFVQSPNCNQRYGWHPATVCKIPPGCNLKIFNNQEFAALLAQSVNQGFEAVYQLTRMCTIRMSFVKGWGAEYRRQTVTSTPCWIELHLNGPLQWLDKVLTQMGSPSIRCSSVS
Sequence of interaction of Smad2 with TβRI (O70436 whole entry): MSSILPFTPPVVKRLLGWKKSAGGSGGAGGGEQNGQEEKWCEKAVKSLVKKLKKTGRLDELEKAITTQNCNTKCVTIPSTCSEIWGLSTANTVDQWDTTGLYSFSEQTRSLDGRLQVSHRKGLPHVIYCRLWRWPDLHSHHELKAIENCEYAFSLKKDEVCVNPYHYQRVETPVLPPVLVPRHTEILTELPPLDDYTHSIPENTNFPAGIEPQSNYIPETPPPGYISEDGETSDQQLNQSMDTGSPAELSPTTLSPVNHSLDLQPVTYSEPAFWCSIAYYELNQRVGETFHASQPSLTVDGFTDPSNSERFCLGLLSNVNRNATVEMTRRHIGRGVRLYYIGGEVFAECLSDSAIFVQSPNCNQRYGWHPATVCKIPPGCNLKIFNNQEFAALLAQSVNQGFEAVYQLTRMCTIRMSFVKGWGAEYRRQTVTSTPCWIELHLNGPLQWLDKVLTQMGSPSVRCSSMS

`CCCCCC/C=C\CCCCCCCc1cccc(O)c1O` [GQ-5, 3-[(Z)-pentadec-8-enyl]catechol] was tested, and the “interaction of Smad2 with TβRI” value [1] was “did not affect”, the “TGF-β1-induced phosphorylation of PI3K” value (PI3K) was “did not affect” and the “interaction of Smad3 with TβRI” value [2] was “significantly blocked”. The “phosphorylation of ERK” value (ERK [3]) was “did not affect”, the “TGF-β1-induced mRNA expression of collagen I” value (collagen I [4]) was “significantly inhibited” and the “death or adverse event” value (C57BL/6J mice) was “did not die or developed any adverse event”. For the same molecule, the “TGF-β1-induced phosphorylation of ERK” value (ERK [5]) was “did not affect”, the “up-regulation of collagen I at both mRNA and protein level” value (collagen I [6]) was “significantly inhibited” and the “up-regulation of fibronectin at both mRNA and protein level” value (fibronectin) was “significantly inhibited”. The “expression of Smad7” value (Smad7) was “did not affect”.
